This passage reports ED50, LD50 and MIC results from patent publication US4686221A, “Quinolinecarboxylic acid compounds and antimicrobial agent containing the same” (Kanebo, Ltd., priority 1985, dated 1987).

The test system of data set [1] is Staphylococcus aureus IID 803. Put plainly: Antibacterial activity in vivo (effect against systemic infection: ED50), S. aureus infected mice. Conditions: read-out: Antibacterial activity ED50 (50% effective dose). Details: species or system ddY male mice infected with Staphylococcus aureus. Here is the method: (§1) Staphylococcus aureus IID 803
(§2) (2) Measurement of antibacterial activity in vivo (effect against systemic infection: ED50):
(§3) The test microorganism was cultured by stationary culture in an agar medium (Trypto-Soya Agar "Nissui", manufactured by Nissui Seiyaku K.K., Japan) at 37° C. for 16 to 18 hours. The culture was diluted with PBS (Dulbecco's phosphate buffered saline) and then was mixed with an equiamount of 10% (W/V) mucin (BACTO MUCIN BACTERIOLOGICAL, manufactured by Difco Co.). The mixture thus prepared was intraperitoneally inoculated to fasted ddY male mice (4 weeks age, weighing 18-20 g, one group: 5 mice) in a dose of 0.5 ml. The inoculum size was 1.3×10^7 CFU/mouse in case of S. aureus IID 803, and 9.7×10^3 CFU/mouse in case of E. coli KC-14.
(§4) The mice were daily observed for one week, and from the survival number of mice after one week, the 50% effective dose (ED50) was calculated by the Weil method.

Another data set in a line: in vivo. Conditions: mouse, po.
In data set [2] the test system is Escherichia coli KC-14. The data set can be described thus: Antibacterial activity in vitro (minimum inhibitory concentration: MIC). Format: cell-based. Here is the method: (§5) (1) Measurement of antibacterial activity in vitro (minimum inhibitory concentration: MIC):
(§6) The test compounds were each dissolved in 0.1N aqueous potassium hydroxide or sterilized distilled water and diluted with sterilized distilled water to give a standard solution (concentration: 1,000 μg/ml). The test was carried out by a method as appointed by Japan Society of Chemotherapy [cf. Chemotherapy, 29, 76-79 (1981) (TOKYO)].

The test system of data set [3] is Escherichia coli KC-14. The data set can be described thus: Antibacterial activity in vivo (effect against systemic infection: ED50), E. coli infected mice. Details: species or system ddY male mice infected with Escherichia coli. Conditions: read-out: Antibacterial activity ED50 (50% effective dose). Here is the method:
as §2, §3, §4

Data set [4] relates to Staphylococcus aureus IID 803. The data set can be described thus: Antibacterial activity in vitro (minimum inhibitory concentration: MIC). Format: cell-based. Here is the method: as §1, §5, §6
Where [5] appears, read: IID803, 168 h, S. aureus IID 803 systemic infection, mice, oral 1 h after infection, survival after one week.
The mark [6] stands for this setting: KC14, E. coli KC-14, in vitro, read-out: Antibacterial activity MIC (minimum inhibitory concentration).
Where [7] appears, read: KC14, 168 h, E. coli KC-14 systemic infection, mice, oral 1 h after infection, survival after one week.
Where [8] appears, read: IID803, S. aureus IID 803, in vitro, read-out: Antibacterial activity MIC (minimum inhibitory concentration).

Values after ≈ are worked out from the molar mass of the structure shown. Structures can show the parent of a compound that is named as a salt. Where two headings read alike, the source gives them in different places.

As usually defined, the ED50 is the midpoint of the dose-response relation. As a reminder, the LD50 is the dose at which mortality reaches 50%. For the compound `Cl.O.O=C(O)c1cn(CCF)c2c(F)c(N3CCN(O)CC3)c(F)cc2c1=O` [compound 4, 6,8-Difluoro-1-(2-fluoroethyl)-1,4-dihydro-7-(4-hydroxypiperazin-1-yl)-4-oxoquinoline-3-carboxylic acid hydrochloride monohydrate], the ED50 in data set [1] (setting [5]) came out at 107 mg/kg; with Escherichia coli KC-14 [3] (setting [7]) it was 1.46 mg/kg. This compound gave an LD50 at 336 h in the data set “in vivo” above 4000 mg/kg. In addition, the MIC with Escherichia coli KC-14 [2] (setting [6]) amounted to 0.39 µg/mL; in data set [4] (setting [8]), 1.56 µg/mL.
On the same counts, the results for `CCn1cc(C(=O)O)c(=O)c2cc(F)c(N3CCNCC3)c(F)c21.Cl` [C, 1-Ethyl-6,8-difluoro-1,4-dihydro-7-(piperazin-1-yl)-4-oxoquinoline-3-carboxylic acid hydrochloride, reference compound] are 40.3 mg/kg, 1.46 mg/kg, 1070 mg/kg, 0.1 µg/mL and 0.78 µg/mL.
With `Cl.O=C(O)c1cn(C2CC2)c2cc(N3CCNCC3)c(F)cc2c1=O` [B, 1-Cyclopropyl-6-fluoro-1,4-dihydro-7-(piperazin-1-yl)-4-oxoquinoline-3-carboxylic acid hydrochloride, reference compound], the ED50 was 46.7 mg/kg in data set [1] (IID803, po, 168 h) and 0.84 mg/kg in the data set with Escherichia coli KC-14 [3] (KC14, po, 168 h). Besides, the MIC with Escherichia coli KC-14 [2] (KC14, read-out: Antibacterial activity MIC (minimum inhibitory concentration)) was 0.0125 µg/mL; in data set [4] (IID803, read-out: Antibacterial activity MIC (minimum inhibitory concentration)), 0.78 µg/mL.
`O=C(O)c1cn(C2CC2)c2cc(N3CCN(O)CC3)c(F)cc2c1=O` [compound 2, 1-Cyclopropyl-6-fluoro-1,4-dihydro-7-(4-hydroxypiperazin-1-yl)-4-oxoquinoline-3-carboxylic acid hydrochloride 1/4 hydrate]: the ED50 in data set [1] (setting [5]) was found to be 17.7 mg/kg; in the data set with Escherichia coli KC-14 [3] (setting [7]), 0.37 mg/kg. In the data set “in vivo”, this compound had an LD50 at 336 h above 4000 mg/kg. The MIC was determined as 0.025 µg/mL with Escherichia coli KC-14 [2] (setting [6]) and 0.78 µg/mL in data set [4] (setting [8]).
On the same counts, the results for `CCn1cc(C(=O)O)c(=O)c2cc(F)c(N3CCN(O)CC3)c(F)c21.Cl` [compound 3, 1-Ethyl-6,8-difluoro-1,4-dihydro-7-(4-hydroxypiperazin-1-yl)-4-oxoquinoline-3-carboxylic acid hydrochloride] are 26.8 mg/kg, 0.84 mg/kg, above 4000 mg/kg, 0.2 µg/mL and 0.78 µg/mL.
As to `CCn1cc(C(=O)O)c(=O)c2cc(F)c(N3CCNCC3)cc21` [A, 1-Ethyl-6-fluoro-1,4-dihydro-7-(piperazin-1-yl)-4-oxoquinoline-3-carboxylic acid, reference compound], the ED50 in data set [1] (setting [5]) stood at 225 mg/kg; with Escherichia coli KC-14 [3] (setting [7]) it was 5.82 mg/kg. Besides, the MIC came out at 0.2 µg/mL (≈ 0.626 µM) in the data set with Escherichia coli KC-14 [2] (setting [6]) and 1.56 µg/mL (≈ 4.89 µM) in data set [4] (setting [8]).
On the same counts, the results for `Cl.O=C(O)c1cn(CCF)c2c(F)c(N3CCNCC3)c(F)cc2c1=O` [D, 6,8-Difluoro-1-(2-fluoroethyl)-1,4-dihydro-7-(piperazin-1-yl)-4-oxoquinoline-3-carboxylic acid hydrochloride, reference compound] are 123 mg/kg, 5.82 mg/kg, 0.2 µg/mL and 1.56 µg/mL.
`Cl.O=C(O)c1cn(C2CC2)c2c(F)c(N3CCNCC3)c(F)cc2c1=O` [E, 1-Cyclopropyl-6,8-difluoro-1,4-dihydro-7-(piperazin-1-yl)-4-oxoquinoline-3-carboxylic acid hydrochloride, reference compound]: the figures for the ED50 (in data set [1] (setting [5]); in the data set on Escherichia coli KC-14 [3] (setting [7])) were 5.07 mg/kg and 0.28 mg/kg, respectively. In the data set “in vivo”, this compound had an LD50 at 336 h of 1410 mg/kg. Moreover, the figures for the MIC (in the data set on Escherichia coli KC-14 [2] (setting [6]); in data set [4] (setting [8])) were 0.0125 µg/mL and 0.2 µg/mL, respectively.
Turning to `Cl.O=C(O)c1cn(C2CC2)c2c(F)c(N3CCN(O)CC3)c(F)cc2c1=O` [compound 5, 1-Cyclopropyl-6,8-difluoro-1,4-dihydro-7-(4-hydroxypiperazin-1-yl)-4-oxoquinoline-3-carboxylic acid hydrochloride], the ED50 in data set [1] (setting [5]) was found to be 3.84 mg/kg; in the data set with Escherichia coli KC-14 [3] (setting [7]), 0.19 mg/kg. Besides, the LD50 at 336 h in the data set “in vivo” was above 4000 mg/kg. The figures for the MIC (with Escherichia coli KC-14 [2] (setting [6]); in data set [4] (setting [8])) were 0.05 µg/mL and 0.39 µg/mL, respectively.
On to `CCn1cc(C(=O)O)c(=O)c2cc(F)c(N3CCN(O)CC3)cc21` [compound 1, 1-Ethyl-6-fluoro-1,4-dihydro-7-(4-hydroxypiperazin-1-yl)-4-oxoquinoline-3-carboxylic acid], for which the results for the ED50 (in data set [1] (setting [5]); in the data set with Escherichia coli KC-14 [3] (setting [7])) were 187 mg/kg and 1.92 mg/kg, respectively. In “in vivo”, this compound registered a 50% lethal dose (LD50) at 336 h above 4000 mg/kg. The MIC was found to be 0.39 µg/mL (≈ 1.16 µM) in the data set with Escherichia coli KC-14 [2] (setting [6]) and 1.56 µg/mL (≈ 4.65 µM) in data set [4] (setting [8]).
